Laboratory results from patent publication US6664269B2, “Isoquinolinone derivatives” (Maybridge plc, priority 2001, dated 2003).

Experiments:
[1] = test system: HeLa cells; test: Dose Enhancing Factor: potentiation of bleomycin cell growth inhibition (SRB assay); assay type: cell-based; details: test compound 25 μM, bleomycin 0.5 μg/ml
Experimental: The Dose Enhancing Factor (DEF) is a ratio of the enhancement of cell growth inhibition elicited by the test compound in the presence of bleomycin compared to bleomycin alone. The test compounds were used at a fixed concentration of 25 μM. Bleomycin was used at a concentration of 0.5 μg/ml. The DEF was calculated from the formula: [formula]
GrowthTC is cell growth in presence of the test compound;
GrowthControl is cell growth of control cells;
Growthbleo is cell growth in presence of bleomycin; and
Growth(bleo+TC) is cell growth in presence of bleomycin and the test compound.
Cell growth was assessed using the sulforhodamine B (SRB) assay (Skehan, P., et al., 1990, J. Natl. Cancer Inst., 82, 1107-1112). 2,000 HeLa cells were seeded into each well of a flat-bottomed 96-well microtiter plate in a volume of 100 μl and incubated for 6 hours at 37° C. Cells were either replaced with media alone or with media containing the test compound at a final concentration of 25 μM. Cells were allowed to grow for a further 1 hour before the addition of bleomycin to either untreated cells or test compound treated cells. Cells untreated with either bleomycin or test compound were used as a control. Cells treated with test compound alone were used to assess the growth inhibition by the test compound.
Cells were left for a further 16 hours before replacing the media and allowing the cells to grow for a further 72 hours at 37° C. The media was then removed and the cells fixed with 100 μl of ice cold 10% (w/v) trichloroacetic acid. The plates were incubated at 4° C. for 20 minutes and then washed four times with water. Each well of cells was then stained with 100 μl of 0.4% (w/v) SRB in 1% acetic acid for 20 minutes before washing four times with 1% acetic acid. Plates were then dried for 2 hours at room temperature. The dye from the stained cells was solubilized by the addition of 100 μl of 10 mM Tris Base into each well. Plates were gently shaken and left at room temperature for 30 minutes before measuring the optical density at 564 nm on a Microquant microtiter plate reader.

| Structure (SMILES) | melting point | DEF (Dose Enhancing Factor) [1] |
| --- | --- | --- |
| COc1ccc(Cc2cc3ccccc3c(=O)[nH]2)cc1 [Compound 1, 3-(4-methoxybenzyl)-1-isoquinolinone] | 216 to 218 °C | 1.15 |
| CCC(c1ccccc1)c1cc2ccccc2c(=O)[nH]1 (stereo not drawn) [Compound 3, 3-(1-Phenylpropyl)-1-isoquinolinone] | 179 to 180 °C | – |
| O=c1[nH]c(Cc2ccc(F)cc2)cc2ccccc12 [Compound 6, 3-(4-Fluorobenzyl)-1-isoquinolinone] | 238 to 240 °C | – |
| O=c1[nH]c(Cc2cccc(O)c2)cc2ccccc12 [Compound 7, 3-(3-hydroxybenzyl)isoquinolinone] | 225 to 227 °C | 1.2 |
| O=c1[nH]cc(Cc2ccccc2)c2ccccc12 [Compound 8, 4-benzyl-1-isoquinolinone] | 217 to 220 °C | – |
| O=c1[nH]cc(Cc2ccc(F)cc2)c2ccccc12 [Compound 9, 4-(4-Fluorobenzyl)-1-isoquinolinone] | 185 to 188 °C | – |
| N#Cc1cccc(Cc2c[nH]c(=O)c3ccccc23)c1 [Compound 12, 4-(3-Cyanobenzyl)-1-isoquinolinone] | 85 to 88 °C | – |

The next lines start with results.

| melting point | Structure (SMILES) | DEF (Dose Enhancing Factor) [1] |
| --- | --- | --- |
| 198 to 200 °C | O=c1[nH]c(CCc2ccccc2)cc2ccccc12 [Compound 2, 3-(2-Phenylethyl)-1-isoquinolinone] | 1.4 |
| 208 to 210 °C | COc1cccc(Cc2cc3ccccc3c(=O)[nH]2)c1 [Compound 4, 3-(3-Methoxybenzyl)-1-isoquinolinone] | 1.2 |
| 193 to 195 °C | O=c1[nH]c(Cc2ccccc2)cc2ccccc12 [Compound 5, 3-Benzyl-1-isoquinolinone] | 1.1 |
| 148 to 150 °C | O=c1[nH]cc(Cc2ccc(F)c(F)c2)c2ccccc12 [Compound 10, 4-(3,4-Difluorobenzyl)-1-isoquinolinone] | – |
| 132 to 134 °C | O=c1[nH]cc(Cc2cccc(F)c2)c2ccccc12 [Compound 11, 4-(3-Fluorobenzyl)-1-isoquinolinone] | – |
| 180 to 182 °C | O=c1[nH]cc(Cc2ccc(Br)cc2)c2ccccc12 [Compound 13, 4-(4-Bromobenzyl)-1-isoquinolinone] | – |
